Measured values: PubChem BioAssay AID250 (DTP/NCI, 2004)
Several values for one entry are separate records, joined by “and”; a condition that tells them apart may be missing. Equal entries are not always repeated. Inconclusive results and toxic doses are left out.

Test system: BDF1 mice, L1210 leukemia sc, survival T/C
Test: NCI In Vivo Anticancer Drug Screen. Data for tumor model L1210 Leukemia (subcutaneous) in B6D2F1 (BDF1) mice
Conditions: higher = longer survival
How it was run: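 Expressed as T/C: measurement in compound-treated, tumor-bearing mice relative to vehicle-treated control mice, based on survival or tumor size.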

[1] = endpoint: median survival time, dose: 39.0 mg/kg/injection, schedule: Q01DX Z (sc), vehicle: water
[2] = endpoint: median survival time, dose: 65.0 mg/kg/injection, schedule: Q01DX Z (sc), vehicle: water
[3] = endpoint: median survival time, dose: 108.0 mg/kg/injection, schedule: Q01DX Z (sc), vehicle: water
[4] = endpoint: median survival time, dose: 180.0 mg/kg/injection, schedule: Q01DX Z (sc), vehicle: water
[5] = endpoint: median survival time, dose: 300.0 mg/kg/injection, schedule: Q01DX Z (sc), vehicle: water

With `COc1cccc2c1C(=O)c1c(O)c3c(c(O)c1C2=O)C[C@@](O)(C(=O)CO)C[C@@H]3OC1CC(N)C(O)C(C)O1` (stereo partly drawn) the T/C (endpoint: median survival time, dose: 0.39 mg/kg/injection, schedule: Q03HX008 (ip), vehicle: water) was 88 % of control, the T/C (endpoint: median survival time, dose: 0.39 mg/kg/injection, schedule: Q03HX008 (sc), vehicle: water) was 100 % of control and the T/C (endpoint: median survival time, dose: 0.65 mg/kg/injection, schedule: Q01DX005 (ip), vehicle: water) was 95 % of control. For the same molecule, the T/C (endpoint: median survival time, dose: 0.65 mg/kg/injection, schedule: Q01DX005 (sc), vehicle: water) was 95 % of control, the T/C (endpoint: median survival time, dose: 0.65 mg/kg/injection, schedule: Q03HX008 (ip), vehicle: water) was 100 % of control (2×) and 111 % of control and the T/C (endpoint: median survival time, dose: 1.0 mg/kg/injection, schedule: Q04DX003 (ip), vehicle: saline) was 92 % of control. The T/C (endpoint: median survival time, dose: 1.08 mg/kg/injection, schedule: Q01DX005 (ip), vehicle: water) was 95 % of control, the T/C (endpoint: median survival time, dose: 1.08 mg/kg/injection, schedule: Q01DX005 (sc), vehicle: water) was 100 % of control and the T/C (endpoint: median survival time, dose: 1.08 mg/kg/injection, schedule: Q03HX008 (ip), vehicle: water) was 100 % of control and 105 % of control and 111 % of control. For the same molecule, the T/C (endpoint: median survival time, dose: 1.8 mg/kg/injection, schedule: Q01DX005 (ip), vehicle: water) was 100 % of control, the T/C (endpoint: median survival time, dose: 1.8 mg/kg/injection, schedule: Q01DX005 (sc), vehicle: water) was 110 % of control and the T/C (endpoint: median survival time, dose: 1.8 mg/kg/injection, schedule: Q03HX008 (ip), vehicle: water) was 111 % of control. For the same molecule, the T/C (endpoint: median survival time, dose: 1.8 mg/kg/injection, schedule: Q04DX003 (sc), vehicle: water) was 111 % of control, the T/C (endpoint: median survival time, dose: 2.0 mg/kg/injection, schedule: Q04DX003 (ip), vehicle: saline) was 94 % of control and the T/C (endpoint: median survival time, dose: 3.0 mg/kg/injection, schedule: Q01DX001 (sc), vehicle: water) was 111 % of control. The T/C (endpoint: median survival time, dose: 3.0 mg/kg/injection, schedule: Q01DX005 (sc), vehicle: water) was 110 % of control, the T/C (endpoint: median survival time, dose: 3.0 mg/kg/injection, schedule: Q04DX003 (sc), vehicle: water) was 116 % of control and the T/C (endpoint: median survival time, dose: 4.0 mg/kg/injection, schedule: Q04DX003 (ip), vehicle: saline) was 92 % of control. The T/C (endpoint: median survival time, dose: 5.0 mg/kg/injection, schedule: Q01DX001 (iv), vehicle: water) was 111 % of control and 115 % of control, the T/C (endpoint: median survival time, dose: 5.0 mg/kg/injection, schedule: Q01DX001 (sc), vehicle: water) was 111 % of control and the T/C (endpoint: median survival time, dose: 5.0 mg/kg/injection, schedule: Q04DX003 (sc), vehicle: water) was 122 % of control. The T/C (endpoint: median survival time, dose: 8.0 mg/kg/injection, schedule: Q04DX003 (ip), vehicle: saline) was 91 % of control, the T/C (endpoint: median survival time, dose: 8.4 mg/kg/injection, schedule: Q01DX001 (iv), vehicle: water) was 122 % of control and the T/C (endpoint: median survival time, dose: 14.0 mg/kg/injection, schedule: Q01DX001 (sc), vehicle: water) was 111 % of control. The T/C (endpoint: median survival time, dose: 14.0 mg/kg/injection, schedule: Q04DX003 (sc), vehicle: water) was 94 % of control and the T/C (endpoint: median survival time, dose: 23.0 mg/kg/injection, schedule: Q01DX001 (iv), vehicle: water) was 67 % of control.

With `CCCCC(C)(N)C(=O)O` (stereo not drawn) the T/C (endpoint: median survival time, dose: 14.0 mg/kg/injection, schedule: Q01DX Z (sc), vehicle: water) was 95 % of control, the T/C (endpoint: median survival time, dose: 23.0 mg/kg/injection, schedule: Q01DX Z (sc), vehicle: water) was 100 % of control and the T/C [1] was 100 % of control. For the same molecule, the T/C [2] was 100 % of control, the T/C [3] was 100 % of control and the T/C [4] was 100 % of control. For the same molecule, the T/C [5] was 100 % of control.

`CCCC(=O)OCC1OC(n2cnc3c(=S)nc(N)[nH]c32)C(OC(=O)CCC)C1OC(=O)CCC` (stereo not drawn) was tested, and the T/C (endpoint: median survival time, dose: 14.0 mg/kg/injection, schedule: Q01DX Z (sc), vehicle: carboxymethylcellulose (CMC)) was 112 % of control, the T/C (endpoint: median survival time, dose: 23.0 mg/kg/injection, schedule: Q01DX Z (sc), vehicle: carboxymethylcellulose (CMC)) was 100 % of control and the T/C (endpoint: median survival time, dose: 39.0 mg/kg/injection, schedule: Q01DX Z (sc), vehicle: carboxymethylcellulose (CMC)) was 112 % of control. For the same molecule, the T/C (endpoint: median survival time, dose: 65.0 mg/kg/injection, schedule: Q01DX Z (sc), vehicle: carboxymethylcellulose (CMC)) was 175 % of control, the T/C (endpoint: median survival time, dose: 108.0 mg/kg/injection, schedule: Q01DX Z (sc), vehicle: carboxymethylcellulose (CMC)) was 168 % of control and the T/C (endpoint: median survival time, dose: 180.0 mg/kg/injection, schedule: Q01DX Z (sc), vehicle: carboxymethylcellulose (CMC)) was 150 % of control.

In the case of `CN(N=O)C(=O)Nc1c[nH]c(=O)[nH]c1=O`, the T/C (endpoint: median survival time, dose: 14.0 mg/kg/injection, schedule: Q01DX Z (sc), vehicle: saline) is reported as 90 % of control, the T/C (endpoint: median survival time, dose: 23.0 mg/kg/injection, schedule: Q01DX Z (sc), vehicle: saline) is reported as 100 % of control and the T/C (endpoint: median survival time, dose: 39.0 mg/kg/injection, schedule: Q01DX Z (sc), vehicle: saline) is reported as 105 % of control. For the same molecule, the T/C (endpoint: median survival time, dose: 65.0 mg/kg/injection, schedule: Q01DX Z (sc), vehicle: saline) was 95 % of control and the T/C (endpoint: median survival time, dose: 108.0 mg/kg/injection, schedule: Q01DX Z (sc), vehicle: saline) was 100 % of control.

In the case of `O=C1OC(C(O)CO)C(O)=C1O` (stereo not drawn), the T/C (endpoint: mean survival time, dose: 0.2 mg/kg/injection, schedule: Q08HX010 (ip), vehicle: other) is reported as 91 % of control, the T/C (endpoint: mean survival time, dose: 0.25 mg/kg/injection, schedule: Q08HX010 (ip), vehicle: other) is reported as 95 % of control and the T/C (endpoint: mean survival time, dose: 0.3 mg/kg/injection, schedule: Q08HX010 (ip), vehicle: other) is reported as 93 % of control. For the same molecule, the T/C (endpoint: mean survival time, dose: 0.5 mg/kg/injection, schedule: Q08HX010 (ip), vehicle: other) was 84 % of control.

In the case of `COc1cc(NS(C)(=O)=O)ccc1Nc1c2cccc(C)c2nc2c(C)cccc12`, the T/C (endpoint: mean survival time, dose: 6.25 mg/kg/injection, schedule: Q01DX009 (ip), vehicle: Klucel (hydroxypropylcellulose) (HPC)) is reported as 100 % of control, the T/C (endpoint: mean survival time, dose: 12.5 mg/kg/injection, schedule: Q01DX009 (ip), vehicle: Klucel (hydroxypropylcellulose) (HPC)) is reported as 103 % of control and the T/C (endpoint: mean survival time, dose: 25.0 mg/kg/injection, schedule: Q01DX009 (ip), vehicle: Klucel (hydroxypropylcellulose) (HPC)) is reported as 102 % of control. The T/C (endpoint: mean survival time, dose: 50.0 mg/kg/injection, schedule: Q01DX009 (ip), vehicle: Klucel (hydroxypropylcellulose) (HPC)) was 103 % of control.

`Nc1ccn(C2CC(O)C(CO)O2)c(=O)n1` (stereo not drawn) was tested, and the T/C (endpoint: median survival time, dose: 37.5 mg/kg/injection, schedule: Q06HX018 (sc), vehicle: water) was 108 % of control, the T/C (endpoint: median survival time, dose: 37.5 mg/kg/injection, schedule: Q## X018 (sc), vehicle: water) was 111 % of control and the T/C (endpoint: median survival time, dose: 75.0 mg/kg/injection, schedule: Q03HX008 (sc), vehicle: water) was 90 % of control and 93 % of control. The T/C (endpoint: median survival time, dose: 75.0 mg/kg/injection, schedule: Q06HX018 (sc), vehicle: water) was 102 % of control, the T/C (endpoint: median survival time, dose: 75.0 mg/kg/injection, schedule: Q## X018 (sc), vehicle: water) was 100 % of control and the T/C (endpoint: median survival time, dose: 150.0 mg/kg/injection, schedule: Q03HX008 (sc), vehicle: water) was 100 % of control and 102 % of control. For the same molecule, the T/C (endpoint: median survival time, dose: 150.0 mg/kg/injection, schedule: Q06HX018 (sc), vehicle: water) was 98 % of control, the T/C (endpoint: median survival time, dose: 150.0 mg/kg/injection, schedule: Q## X018 (sc), vehicle: water) was 100 % of control and the T/C (endpoint: median survival time, dose: 300.0 mg/kg/injection, schedule: Q06HX018 (sc), vehicle: water) was 106 % of control. For the same molecule, the T/C (endpoint: median survival time, dose: 300.0 mg/kg/injection, schedule: Q## X018 (sc), vehicle: water) was 105 % of control.

`COc1ccc(/C=N/NC(N)=S)cc1` was tested, and the T/C (endpoint: median survival time, dose: 39.0 mg/kg/injection, schedule: Q01DX Z (sc), vehicle: methylcellulose (MC)) was 95 % of control, the T/C [1] was 100 % of control and the T/C (endpoint: median survival time, dose: 65.0 mg/kg/injection, schedule: Q01DX Z (sc), vehicle: methylcellulose (MC)) was 100 % of control. For the same molecule, the T/C [2] was 100 % of control, the T/C (endpoint: median survival time, dose: 108.0 mg/kg/injection, schedule: Q01DX Z (sc), vehicle: methylcellulose (MC)) was 100 % of control and the T/C [3] was 100 % of control. For the same molecule, the T/C (endpoint: median survival time, dose: 180.0 mg/kg/injection, schedule: Q01DX Z (sc), vehicle: methylcellulose (MC)) was 95 % of control, the T/C [4] was 100 % of control and the T/C (endpoint: median survival time, dose: 216.0 mg/kg/injection, schedule: Q01DX Z (sc), vehicle: water) was 100 % of control. The T/C (endpoint: median survival time, dose: 300.0 mg/kg/injection, schedule: Q01DX Z (sc), vehicle: methylcellulose (MC)) was 100 % of control, the T/C [5] was 100 % of control and the T/C (endpoint: median survival time, dose: 360.0 mg/kg/injection, schedule: Q01DX Z (sc), vehicle: water) was 111 % of control. The T/C (endpoint: median survival time, dose: 500.0 mg/kg/injection, schedule: Q01DX Z (sc), vehicle: methylcellulose (MC)) was 100 % of control, the T/C (endpoint: median survival time, dose: 500.0 mg/kg/injection, schedule: Q01DX Z (sc), vehicle: water) was 100 % of control and the T/C (endpoint: median survival time, dose: 600.0 mg/kg/injection, schedule: Q01DX Z (sc), vehicle: water) was 105 % of control. For the same molecule, the T/C (endpoint: median survival time, dose: 1000.0 mg/kg/injection, schedule: Q01DX Z (sc), vehicle: water) was 111 % of control.
